The results in this text go back to US20030211075A1 (priority 2001, published 2003).

Assay [1] relates to L540 human Hodgkin's disease tumors. The experiment in a line: Treatment of L540rec tumor-bearing SCID mice with tTF and/or endotoxin, tumor tissue necrosis by densitometry. Type of assay: in vivo, mouse. The conditions noted are these: for % tumor necrosis: tTF alone (4 μg; 4 μg or 16 μg), no endotoxin, three days after i.v. treatment; for anti-tumor effect: tTF alone. On the procedure: For in vivo studies, a metastasizing mouse model for human Hodgkin's lymphoma was used. 1×10^7 L540rec cells were injected subcutaneously into the right flank of SCID mice resulting in a subcutaneous tumor with lymph node metastases in the regional lymph node stations. Subcutanous tumors were measured with a caliper in three perpendicular directions a, b, and c, and volumes calculated according to the formula V=π/6×a×b×c.
Treatment was initiated when subcutaneous tumors reached a size of 150 to 300 μl. Reagents were administered into the lateral tail vein.
Mice were closely observed after treatment for clinical signs of toxicity and clinical status was documented at defined time points (5 minutes, 10 minutes, 15 minutes, 30 minutes. 1 hour. 2 hours, 24 hours, 48 hours, 72 hours). Blood samples were taken from the tail vein at 1 hour, 2 hours and 24 hours to measure TNFα blood levels. Three days after treatment, the mice were anesthetized, blood samples were taken from the vena cava for coagulation tests, and an autopsy was performed to document any changes in gross pathology. Tumors, lymph node metastases and the major normal organs (heart, lung, brain, liver, kidney, colon, spleen, pancreas) were harvested and prepared for histological analysis.
Tissue samples harvested at the time of autopsy were fixed in 3% NBF (normal buffered formalin) and embedded in paraffin wax. Tissue blocs were cut, dewaxed and stained with hematoxilin and eosin (H&E). Tissue sections were analyzed on a light microscope by two independent investigators and histological findings were documented. Tumor sections with necrotic areas were scanned with a GS-700 imaging densitometer (Biorad, Hercules, Calif.) and areas of necrosis were calculated as % of total section area. Statistical Analysis was performed using SPSS software (SPSS Science Software, Erkrath, Germany) applying the Mann-Whitney-U-test for ungrouped data.

Assay [2] has as its system F9 sarcoma. The experiment in a line: F9 sarcoma mouse model, tumor tissue necrosis. Type of assay: in vivo. The conditions noted are these: tTF 4 μg, endotoxin 0.5 μg; three days; spontaneous necrosis 40-50%. On the procedure: 1×10^7 F9 sarcoma cells were injected subcutaneously into the right flank of balb/c nude mice. Subcutanous tumors were measured with a caliper in three perpendicular directions a, b, and c and volumes calculated according to the formula V=π/6×a×b×c. Treatment was initiated when subcutaneous tumors reached a size of 150 to 300 μl.
Reagents were administered into the lateral tail vein.
Mice were closely observed after treatment for clinical signs of toxicity and clinical status was documented at defined time points. Three days after treatment, mice were sacrificed and tumors were harvested. Paraffin embedded tissues were stained with hematoxilin and eosin (H&E). Tissue sections were analyzed on a light microscope by two independent investigators and histological findings were documented. Tumor sections with necrotic areas were scanned with a GS-700 imaging densitometer (Biorad, Hercules, Calif.) and areas of necrosis were calculated as % of total section area.

For “tTF: extracellular domain of the mature Tissue Factor protein (amino acid 1-219), recombinant truncated human Tissue Factor”, the “% tumor necrosis” value in assay [1] is reported as 0%; in assay [1] (listed as TTF), 4%; in assay [1] (listed as endotoxin-free tTF), 0%. Moreover, the anti-tumor effect result in assay [1] (4 μg to 16 μg) was “no anti-tumor effect”; in assay [1] (100 μg), “anti-tumor effects begin to appear”. The tumor tissue necrosis in assay [2] worked out at 45%.
